The values below come from patent US20250145631A1, “HETEROCYCLIC COMPOUND ACTING ON G12D MUTANT KRAS PROTEIN” (Astellas Pharma Inc., priority 2022, published 2025).

Common to all, as to assay type: cell-based
The target in one experiment is T1, KRAS G12D (Homo sapiens, UniProt P01116, G12D).
T1 construct: host or cells: AsPC-1 (human pancreatic cancer line)
As to the kind of experiment: KRAS degradation activity by Cell ELISA in AsPC-1 cells (Test Example 1). Particulars: Cell ELISA; for Dmax: ASPC1, overnight treatment, read-out: Dmax (degradation rate at the concentration showing highest degradation); for DC50: overnight treatment, read-out: DC50 (50% degradation concentration of KRAS). The method, then:
The KRAS degradation activity of test compounds was evaluated by measuring the expression levels of KRAS G12D by Cell ELISA.
AsPC-1 cells were seeded at 20 μL per well on 384-well plates (from Greiner bio-one) to give 2.0×10^4 cells per well. As for the cell culture conditions, RPMI 1640 (from Sigma-Aldrich) medium containing 10% fetal bovine serum (from Cytiva) was used in the presence of 5% CO2 at 37° C.
The next day, the test compounds (10 points having final concentrations in the range of 10 μM to 0.3 nM) and DMSO (from FUJIFILM Wako Pure Chemical Corporation), which was the solvent for the test compounds, as a negative control were diluted 500-fold with a fresh medium and were added at 20 μL per well. The cells were cultured overnight. The next day, the culture supernatant was removed, and 4% paraformaldehyde phosphate buffer (from FUJIFILM Wako Pure Chemical Corporation) was added at 20 μL per well. The plates were allowed to stand for 30 minutes at room temperature to thus immobilize the cells. Then, the supernatant was removed, and 0.1% Triton X-100 (from Amersham Biosciences)-containing Phosphate buffered saline (PBS; from FUJIFILM Wako Pure Chemical Corporation) was added at 20 μL per well. After allowing to stand for 10 minutes at room temperature, the supernatant was removed. PBS was added at 25 μL per well, and the supernatant was removed to thus wash each well. The washing was performed twice in total. Next, the supernatant was removed, and 0.5% sodium dodecyl sulfate (SDS; from Invitrogen)-containing PBS was added at 20 μL per well. After allowing to stand at room temperature for 10 minutes, the supernatant was removed by a centrifugal operation (using a centrifugal dehydrator machine, the supernatant was removed by the same method hereinafter). PBS was added at 25 μL per well, and the supernatant was removed to thus wash each well. The washing was performed twice in total. The supernatant was removed, and blocking solution (Intercept Blocking Buffer; from Li—COR Biosciences) was added at 20 μL per well. After allowing to stand for 30 minutes at room temperature, the supernatant was removed, and a solution obtained by diluting anti-β-actin antibody (Anti-beta Actin antibody [mAbcam 8226]-Loading Control; from abcam) 1,000-fold with blocking solution and a solution obtained by diluting anti-Ras (G12D Mutant Specific) antibody (Ras (G12D Mutant Specific) (D8H7) Rabbit mAb #14429; from Cell Signaling Technology) and anti-β-actin antibody (from abcam) 1,000-fold with blocking solution were respectively added to positive control wells and the other wells at 15 μL per well as a primary antibody. The plates were allowed to stand overnight at 4° C.
The next day, the supernatant was removed. PBS was added at 25 μL per well, and the supernatant was removed to thus wash each well. The washing was performed twice in total. The supernatant was removed, and a solution obtained by diluting Donkey anti-Mouse IgG H&L (IRDye 680RD) (from Li—COR Biosciences) and Goat anti-Rabbit IgG H&L (IRDye 800CW) (from Li—COR Biosciences) 1,000-fold with blocking solution was added at 15 μL per well as a secondary antibody. A solution obtained by diluting Donkey anti-Mouse IgG H&L (IRDye 680RD) (from Li—COR Biosciences) 1,000-fold with blocking solution was added to a positive control well as a secondary antibody. After allowing to stand for 1 hour at room temperature, the supernatant was removed. PBS was added at […], and the supernatant was removed to thus wash each well. The washing was performed twice in total. After removing the supernatant, the plates were dried with air at room temperature for 2 hours or more, and the 700 nm and 800 nm fluorescent signals were measured with Aerius (from Li—COR Biosciences). […]

For experiment [1], the system named is phosphorylation of ERK (Thr202/Tyr204). As to the kind of experiment: ERK phosphorylation inhibitory effect by Cell ELISA in AsPC-1 cells (Test Example 2). The following applies: Homo sapiens, ASPC1, overnight treatment, Cell ELISA, read-out: IC50 (ERK phosphorylation inhibition). The method, then: The ERK phosphorylation inhibitory effect of test compounds was evaluated by measuring phosphorylation of threonine 202 (Thr202) and tyrosine 204 (Tyr204) of ERK located downstream of the KRAS signal by Cell ELISA.
AsPC-1 cells were seeded on 384-well plates at 20 µL/well to give 2.0×10^4 cells per well. As for the cell culture conditions, RPMI 1640 medium containing 10% fetal bovine serum was used in the presence of 5% CO2 at 37° C.
The next day, the test compounds (10 points having final concentrations in the range of 10 μM to 0.3 nM), trametinib (MEK inhibitor) of a final concentration of […] as positive control and DMSO, which was the solvent for the test compounds, as negative control were diluted 500-fold with a fresh medium and were added at 20 μL per well. The cells were cultured overnight. After culturing, 30% glyoxal solution (40% glyoxal [from Nacalai Tesque]was diluted with PBS) was quickly added at 30 μL per well, and the plates were allowed to stand for 120 minutes at room temperature to thus immobilize the cells. Then, the plates were centrifuged to remove the supernatant (using a centrifugal dehydrator machine, the supernatant was removed by the same method hereinafter), and 0.10% Triton X-100-containing PBS was added at 20 μL per well. After allowing to stand for 10 minutes at room temperature, the supernatant was removed, and the same operation was further repeated. Next, 0.5% SDS-containing PBS was added at 20 μL per well, and after allowing to stand at room temperature for 30 minutes, the supernatant was removed. Subsequently, blocking solution (Intercept Blocking Buffer) was added at 20 μL per well, and the plates were allowed to stand for 1 hour at room temperature. The supernatant was removed, and an ERK (Thr202/Tyr204) phosphorylation antibody (Phospho-p44/42 MAPK (Erk 1/2) (Thr202/Tyr204) (D13.14.4E) XP Rabbit mAb; from Cell Signaling Technology) diluted 2,500-fold with blocking solution was added at 15 μL per well as a primary antibody. The plates were allowed to stand at 4° C. overnight.
The next day, the supernatant was removed. 0.05% Tween-20 (from Thermo Fisher Scientific)-containing PBS was added at 50 μL per well, and the supernatant was removed to thus wash each well. The washing was performed three times in total. After washing, Goat anti-Rabbit IgG H&L (IRDye 800CW) diluted 1,000-fold with blocking solution was added at 15 μL per well as a secondary antibody, and the plates were allowed to stand for 1 hour at room temperature. The supernatant was removed, and each well was washed three times with 0.05% Tween-20-containing PBS in the same manner as after the primary antibody reaction. After removing the supernatant, the plates were dried with air at room temperature for 3 hours or more, and the 800-nm fluorescent signals were measured with Aerius.
With the signaling value at the time of addition of DMSO taken as 100% and with the signaling value at the time of addition of […] trametinib taken as 0%, the 50% inhibitory concentration values (IC50) were calculated by Sigmoid-Emax nonlinear regression analysis. The calculated 50% inhibition represents the inhibition at the highest concentration evaluated (10 μM) for a compound that exceeds the concentration in the evaluation range.
(§1) In the tables presented below, Ex represents Example No. The IC50 of Ex. 13, Ex. 15, and Ex. 16 were calculated using the molecular weights as tetrahydrochloride, and the IC50 of Ex. 14 was calculated using the molecular weight as trihydrochloride.
(In an ELISA, binding on a coated surface is turned into a signal by an enzyme label.)

In experiment [2] the test system is human G12D mutant KRAS-positive pancreatic cancer line AsPC-1. As to the kind of experiment: Non-anchorage-dependent cell growth inhibitory effect, spheroid 3D culture (Test Example 3). Particulars: ASPC1, 144 h, AsPC-1 spheroid 3D culture, 6 days, CellTiter Glo 2.0, read-out: IC50 (non-anchorage-dependent cell growth inhibition). As to the method: The non-anchorage-dependent cell growth inhibitory effect of test compounds was evaluated by spheroid 3D cell culture.
AsPC-1 cells were seeded on low-cell-adhesive round bottom 384-well plates (PrimeSurface: from Sumitomo Bakelite) at 20 μL (or […])/well to give 5×10^2 cells per well. As for the cell culture conditions, RPMI 1640 medium containing 10% fetal bovine serum was used in the presence of 5% CO2 at 37° C.
The next day, the test compounds (10 points or 6 points having final concentrations in the range of 10 μM to 0.3 nM) and DMSO, which was the solvent for the test compounds, as a negative control were diluted 500-fold (or 100-fold) with a fresh medium and were added at 20 μL (or […]) per well. After culturing in the presence of 5% C02 at 37° C. for 6 days, CellTiter Glo 2.0 (from Promega) was added at 20 μL per well. After stirring with a plate mixer (from FINEPCR) at normal temperature for 1 hour, the luminescent signals were measured with ARVO X3 (from PerkinElmer).
With the signaling value in treatment with DMSO taken as 100% and with the signaling value in the medium alone without cells taken as 0%, the 50% inhibitory concentration values (IC50) were calculated by Sigmoid-Emax nonlinear regression analysis. The calculated 50% inhibition represents the inhibition at the highest concentration evaluated (10 μM) for a compound that exceeds the concentration in the evaluation range.
as §1

Each structure is given as a SMILES string.

T1 sequence (P01116 1-188 isoform P01116-2 G12D): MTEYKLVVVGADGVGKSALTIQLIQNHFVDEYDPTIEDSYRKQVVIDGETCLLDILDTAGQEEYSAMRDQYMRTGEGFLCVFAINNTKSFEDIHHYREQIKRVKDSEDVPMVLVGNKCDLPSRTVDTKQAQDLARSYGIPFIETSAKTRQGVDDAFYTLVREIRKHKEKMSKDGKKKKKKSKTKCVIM

As to `Cc1c(F)cc2[nH]ncc2c1-c1c(C2CC2)cc2c(N3C[C@@H]4C[C@H]3CN4)nc(OC3CCOCC3)nc2c1OCc1ccc(C(=O)N2CCN(Cc3ccc4c(N5CCC(=O)NC5=O)nn(C)c4c3)CC2)cc1` (atropisomer, axis not shown) [Example 13], at KRAS G12D, the Dmax stood at 66% and the DC50 was 408 nM. The IC50 (usually the concentration needed to halve the response being measured) in experiment [1] was found to be 608 nM. Further, the IC50 in experiment [2] was found to be 1220 nM.

As to `Cc1nc(N2CCN(C(=O)c3ccc(COc4c(-c5c(C)c(F)cc6[nH]ncc56)c(C5CC5)cc5c(N6C[C@@H]7C[C@H]6CN7)nc(OC6CCOCC6)nc45)cc3)CC2)ccc1N1CCC(=O)NC1=O` (atropisomer, axis not shown) [Example 14], at KRAS G12D, the Dmax came out at 51%. For the same compound, the DC50 at KRAS G12D was 2180 nM. Also, the IC50 in experiment [1] turned out to be 1510 nM; in experiment [2], 1120 nM.

Take `Cc1c(F)cc2[nH]ncc2c1-c1c(C2CC2)cc2c(N3C[C@@H]4C[C@H]3CN4)nc(OC3CCOCC3)nc2c1OCc1ccc(C(=O)N2CCN(Cc3ccc4c(N5CCC(=O)NC5=O)nn(C)c4c3)C[C@H]2C)cc1` (atropisomer, axis not shown) [Example 15]: on KRAS G12D, the Dmax came out at 60% and the DC50 stood at 406 nM. For the same compound, in experiment [1], the IC50 came to 503 nM. In experiment [2], the IC50 was 211 nM.

Regarding `Cc1nc(OC2CCN(C(=O)c3ccc(COc4c(-c5c(C)c(F)cc6[nH]ncc56)c(C5CC5)cc5c(N6C[C@@H]7C[C@H]6CN7)nc(OC6CCOCC6)nc45)cc3)CC2)ccc1N1CCC(=O)NC1=O` (atropisomer, axis not shown) [Example 17], on KRAS G12D, the Dmax is 52% and the DC50 amounted to 4270 nM. For the same compound, the IC50 in experiment [1] is 1340 nM. Further, in experiment [2], the IC50 came to 684 nM.

For `Cc1c(F)cc2[nH]ncc2c1-c1c(C2CC2)cc2c(N3C[C@@H]4C[C@H]3CN4)nc(OC3CCOCC3)nc2c1OCc1ccc(C(=O)N2CCC3(CN(Cc4ccc5c(N6CCC(=O)NC6=O)nn(C)c5c4)C3)C2)cc1` (atropisomer, axis not shown) [Example 19], on KRAS G12D, the Dmax was found to be 93%. Moreover, the DC50 at KRAS G12D was 278 nM. The IC50 came to 555 nM in experiment [1] and 242 nM in experiment [2].

`Cc1c(F)cc2[nH]ncc2c1-c1c(C2CC2)cc2c(N3C[C@@H]4C[C@H]3CN4)nc(OC3CCOCC3)nc2c1OCc1ccc(C(=O)N2CC[C@H](N(C)Cc3ccc4c(N5CCC(=O)NC5=O)nn(C)c4c3)C2)cc1` (atropisomer, axis not shown) [Example 20]: the Dmax on KRAS G12D is 78%. Moreover, the DC50 at KRAS G12D came out at 488 nM. For the same compound, the IC50 in experiment [1] turned out to be 1070 nM; in experiment [2], 884 nM.

As to `Cc1c(N2CCC(=O)NC2=O)ccnc1OC1CCN(C(=O)c2ccc(COc3c(-c4c(C)c(F)cc5[nH]ncc45)c(C4CC4)cc4c(N5C[C@@H]6C[C@H]5CN6)nc(OC5CCOCC5)nc34)cc2)CC1` (atropisomer, axis not shown) [Example 21], the Dmax on KRAS G12D was 52%. Besides, the DC50 on KRAS G12D worked out at 4960 nM. The IC50 in experiment [1] was determined as 2280 nM; in experiment [2], 852 nM.

For the compound `Cc1c(F)cc2[nH]ncc2c1-c1c(C2CC2)cc2c(N3C[C@@H]4C[C@H]3CN4)nc(OC3CCOCC3)nc2c1OCc1ccc(C(=O)N2CCN(Cc3ccc4c(c3)cc(N3CCC(=O)NC3=O)c(=O)n4C)C[C@@H]2C)cc1` (atropisomer, axis not shown) [Example 46], the IC50 in experiment [2] was 1280 nM.

Regarding `Cc1c(F)cc2[nH]ncc2c1-c1c(C2CC2)cc2c(N3C[C@@H]4C[C@H]3CN4)nc(OC3CCOCC3)nc2c1OCc1ccc(C(=O)N2CCN(Cc3ccc4c(c3)n(C)c(=O)n4N3CCC(=O)NC3=O)C[C@@H]2C)cc1` (atropisomer, axis not shown) [Example 47], the IC50 in experiment [2] came out at 448 nM.

`CO[C@@H](C)COc1nc(N2CCNCC2)c2cc(C3CC3)c(-c3c(C)c(F)cc4[nH]ncc34)c(OCc3ccc(C(=O)N4CCN(Cc5ccc6c(c5)n(C)c(=O)n6C5CCC(=O)NC5=O)C[C@@H]4C)cc3)c2n1` (some centres unmarked) [Example 45]: in experiment [2], the IC50 worked out at 162 nM.

In the case of `Cc1c(F)cc2[nH]ncc2c1-c1c(C2CC2)nc2c(N3C[C@@H]4C[C@H]3CN4)nc(OC3CCOCC3)nc2c1OCc1ccc(C(=O)N2CCN(Cc3ccc4c(c3)n(C)c(=O)n4C3CCC(=O)NC3=O)C[C@@H]2C)cc1` (some centres unmarked) [Example 48], in experiment [2], the IC50 stood at 161 nM.
